# Laboratory results: patent US20250297225A1, “MULTIPLE HEART TISSUE CULTURE FUSION” (IMBA - INSTITUT FÜR MOLEKULARE BIOTECHNOLOGIE GMBH, priority 2022, published 2025)
# Entries after “also recorded” stand apart in the source; their conditions may differ.
# Tests used:
# [1] = tested on: cardioids (LV, RV, OFT, Atria, AVC); test: Real-time qPCR of cardioids treated with teratogens; format: cell-based, human
# Experimental: The isolated RNA was reverse transcribed to cDNA using the Reverse Transcription Kit (Invitrogen, #18080044) with a C100 Touch Bio-Rad Thermal Cycler. Quantitative PCR was performed using the GoTaq qPCR master mix 2× (Promega, #A6001) with a Bio-Rad CFX384 Real-Time thermal cycler. Values of gene expression of each sample were obtained in triplicates. The Log-fold change of the sample from PBGD as a housekeeping gene and a pluripotent stem cell sample for normalization were used.
# [2] = tested on: cardioids (LV, RV, OFT, Atria, AVC); conditions: for dosage at which severe compartment-specific and stage-specific effects were observed: human
# Experimental: All cardioids were treated with the teratogens from mesoderm induction (day 0) until day 9.5.
# All cardioids were treated with the teratogens from mesoderm induction (day 0) until day 9.5. *p<0.05, **p<0.01, ***p<0.001, ****p<0.0001.
# hPSCs (WTC or H9 lines) are seeded in a 24-well plate (TPP, #92024) at 30-40 k cells per well in E8 medium+ROCKi (5 μM Y-27632, Tocris #1254). […] The medium contains BSA which is important for efficient cardioid generation. 24 hours after seeding in the 24-well plate, the cells are induced with mesoderm induction media. Mesoderm induction media is made up of CDM containing FGF2 (30 ng/ml, QKine, Cambridge/UK), LY294002 (5 μM, Tocris, #1130), Activin A (specific concentrations for different cardioid subtypes-see below, QKine, Cam-bridge/UK), BMP4 (10 ng/ml, R&D Systems RD-314-BP-050), and CHIR99021 (specific concentrations for different cardioid subtypes—see below, R&D Systems RD-4423/50). After 36-40 hours cells are dissociated with TrypleE (Gibco, #12605010) and seeded in a Corning ultra-low attachment 96 well plate (Corning, #7007) at 15-20 k cells/well in Cardiac Mesoderm Patterning Media One made up of CDM containing ROCK inhibitor and for all protocols besides the LV 1 μg/ml of insulin (Roche, #11376497001) plus specific factors depending on cardioid subtype (see below). After seeding, the cells are spun down in a centrifuge for 4 mins at 200 g. This protocol is termed 2D-3D standard protocol. Alternatively, hPSCs were seeded into Corning ultra-low attachment 96 well plate with a density of 5000 cells/well. Cells were seeded in a volume of 200 ml containing E8+ROCKi and collected by centrifugation for 5 minutes at 200 g. As another option, 2500 cells/well were seeded directly into induction media+ROCKi and collected by centrifugation for 5 minutes at 200 g. For both protocols, cells were induced with mesoderm induction media as described for the 2D->3D protocol. These were termed 3D protocols. For both protocols, 24 hours later (or at day 2.5) the cells are fed with Cardiac Mesoderm Patterning Media One. For the next two days, the medium is changed to Cardiac Mesoderm Patterning Media Two made up of CDM containing specific factors depending on the cardioid subtype (see below) and exchanged every day. For the subsequent two days, media is exchanged every day with Cardiomyocyte Differentiation Media CDM medium containing BMP4 (10 ng/ml), FGF2 (8 ng/ml) and insulin (10 μg/ml). For the subsequent days of culture, media is exchanged every other day with CDM containing insulin (10 μg/ml).
# Spinning disk confocal microscopes (Olympus spinning disk system based on an IX3 Series (IX83) inverted microscope, equipped with a Yokogawa W1 spinning disc) were used to image fixed tissue sections. Live imaging was carried out using an inverted widefield microscope for brightfield and fluorescence (Axioobserver Z1 equipped with an sCMOS camera (Hamamatsu Orca Flash 4). Cardioids in 96-well plates were also imaged using a Celigo Imaging Cytometer microscope (Nexcelom Biosciences, LLC).
# [3] = cited from earlier work
# [4] = tested on: FHF and aSHF progenitors / cardioids; test: Lineage specification of cardiac progenitors/cardioids by retinoic acid dosage; format: cell-based, human; conditions: LV (FHF progenitor), Cardiac Mesoderm Patterning Media One
# Experimental: These were termed 3D protocols.
# The retinoic acid concentration should be low as a higher concentration (>100 nM) leads to FHF-derived atria, not ventricular fate.
# The retinoic acid addition here helps drive the RV identity.
smiles,measurement,setting,value
CC1=C(/C=C/C(C)=C/C=C/C(C)=C/CO)C(C)(C)CCC1 [All trans Retinol],"gene expression in OFT cardioids (OFT, ventricular, chamber, atrial genes)",[1]; OFT cardioids,downregulation of OFT and upregulation of ventricular genes
same,effect on all the other cardioid subtypes,[2],unaffected
same,morphological effect on OFT cardioids,[2],severe morphological effect on OFT cardioids
same,size difference between treated and untreated cardioids,[2],no size difference between treated and untreated cardioids within one protocol the except LV cardioids treated with 50 nM
COc1cc(C)c(/C=C/C(C)=C/C=C/C(C)=C/C(=O)O)c(C)c1C [Acitretin],CM differentiation and morphology of treated cardioids,[2],Inefficient CM differentiation and morphological changes
same,"defects in OFT, atrial, and AVC cardioids",[2],"specification, patterning and morphogenesis defects"
same,dosage at which severe compartment-specific and stage-specific effects were observed,[2],5 nM
O=C1CCC(N2C(=O)c3ccccc3C2=O)C(=O)N1 (stereo not shown) [thalidomide],expression of chamber-specific marker NPPA,[1]; d9.5 cardioids,downregulation of the chamber-specific marker NPPA for all lineages except for the RV and OFT
same,"expression of compartment identity markers (NR2F2, IRX1/4)",[1]; d9.5 cardioids,"dosage-specific misregulation of compartment identity markers (NR2F2, IRX1/4)"
same,expression of lineage specific genes,"[1]; d9.5 cardioids, fold change normalized to housekeeping gene and pluripotency",mis-regulation of lineage specific genes
same,human therapeutic plasma concentrations,[3],~2.4 µM
CC(=O)Oc1ccccc1C(=O)O [Aspirin],gene expression differences vs control cardioids,[1]; high 30 μM dosage,no obvious gene expression differences; also recorded: neither observed morphological nor significant gene expression differences
same,size and TNNI-GFP expression compared to untreated cardioids,[2],no size and TNNI-GFP expression differences
CC1=C(/C=C/C(C)=C/C=C/C(C)=C\C(=O)O)C(C)(C)CCC1 [Isotretinoin],"defects in OFT, atrial, and AVC cardioids",[2],"specification, patterning and morphogenesis defects"
same,dosage at which severe compartment-specific and stage-specific effects were observed,[2],1 nM
CC1=C(/C=C/C(C)=C/C=C/C(C)=C/C(=O)O)C(C)(C)CCC1 [retinoic acid],"retinoic acid concentration that leads to FHF-derived atria, not ventricular fate",[4],> 100 nM
